{
  "source": "paper PMC9670689",
  "about": "(ACS Omega, 2022)",
  "key": {"[1]": {"system": "Seasonal influenza A/Egypt/NRC098/2019(H1N1)", "assay": "microbe, parasite or virus in culture", "assay_type": "cell-based, seasonal human influenza A/H1N1 virus", "details": "H1N1, MDCK, in Homo sapiens"}, "neuraminidase": {"system": "neuraminidase", "assay": "Colorimetric neuraminidase inhibition assay", "assay_type": "biochemical"}},
  "data": [
    {"smiles": "CC1=C2[C@H]3OC(=O)[C@@H](C)[C@@H]3CC[C@@]2(C)C=CC1=O", "note": "[santonin]", "values": [
      {"measurement": "IC50", "setting": "[1]", "result": 2.91, "unit": "µg/mL"},
      {"measurement": "neuraminidase inhibition activity (in words)", "setting": "neuraminidase; all tested concentrations (10 mM to 1 μM), compared to zanamivir", "result": "dose-dependant neuraminidase inhibition activities"},
      {"measurement": "neuraminidase activity", "setting": "neuraminidase; following treatment with 1 μM", "result": "0.65 ± 0.18", "unit": "units/mL"},
      {"measurement": "neuraminidase activity", "setting": "neuraminidase; following treatment with 10 μM", "result": "0.42 ± 0.08", "unit": "units/mL"},
      {"measurement": "neuraminidase activity", "setting": "neuraminidase; following treatment with 100 μM", "result": "0.41 ± 0.06", "unit": "units/mL"},
      {"measurement": "neuraminidase activity", "setting": "neuraminidase; following treatment with 1 mM", "result": "0.35 ± 0.11", "unit": "units/mL"},
      {"measurement": "neuraminidase activity", "setting": "neuraminidase; following treatment with 10 mM", "result": "0.14 ± 0.097", "unit": "units/mL"},
      {"measurement": "toxic effect in MDCK cells (in words)", "setting": "MDCK cells", "result": "slightly toxic effect"}
    ]}
  ]
}
